The values below come from patent US8592468B2, “Bacterial thioredoxin reductase inhibitors and methods for use thereof” (Thioredoxin Systems AB, priority 2006, dated 2013).

In brackets after ≈: the same amount, converted by molar mass.

In one test the target is E. coli TrxR (Escherichia coli (strain K12), UniProt P0A9P4). As to the kind of experiment: Inhibition of E. coli TrxR reduction of Trx, DTNB coupled assay (Lineweaver-Burk). The test is classed as biochemical. Here is the method: FIGS. 4A and 4B show the effect of ebselen (FIG. 4A) and ebselen diselenide (FIG. 4B) on DTNB reduction by E. coli thioredoxin and thioredoxin reductase. Assays were contained in 0.50 ml semi-microcuvettes containing 0.24 mM NADPH, 1 mM DTNB in 0.10 M Tris-Cl, pH 8.0, 1 mM EDTA. The increase in A412 was measured against a blank using 10 nM E. coli TrxR in the presence of 2 μM (grey filled points), 5 μM (white filled points), 10 μM (black filled points) E. coli Trx with 0 (squares), 0.5 μM (triangles), 1 μM (rhombus), 2 μM (rounds) of ebselen or ebselen diselenide.
Sequence of E. coli TrxR (P0A9P4 2-321 limits assumed): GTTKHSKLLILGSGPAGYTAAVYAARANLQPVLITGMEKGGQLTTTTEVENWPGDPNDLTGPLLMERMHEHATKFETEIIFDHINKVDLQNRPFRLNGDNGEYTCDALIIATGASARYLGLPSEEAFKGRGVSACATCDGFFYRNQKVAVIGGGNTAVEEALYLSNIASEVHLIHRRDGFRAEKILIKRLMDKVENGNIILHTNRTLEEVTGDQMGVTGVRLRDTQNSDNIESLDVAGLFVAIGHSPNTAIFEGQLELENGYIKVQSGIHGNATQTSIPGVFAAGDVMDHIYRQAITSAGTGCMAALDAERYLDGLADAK
(A) Ebselen concentrations were 0 μM (▴), 0.5 μM (∀), 1 μM (▪) and 2 μM (Δ). […] (B) Ebselen concentrations were 0 μM (▴), 1 μM (▪) and 2 μM (∀).
The activity of the enzyme was determined at room temperature using an Ultrospec 3000 UV/Visual spectrophotometer (Amersham Biosciences). […] The enzyme-catalysed reactions were followed at 340 nm using the standard calculation of NADPH oxidation to NADP^+ with a molar extinction coefficient of 6200 M^−1 cm^−1 (32, 34). The conditions of the assay of bacterial thioredoxin reductase have been described (32, 34) using either 1 mM DTNB or 160 μM insulin as a substrate. In DTNB coupled assays, 240 μM NADPH and 1 mM DTNB were used in the TE buffer and formation of the TNB was measured at 412 nm, where TNB has an extinction coefficient of 13600 M^−1 cm^−1.
Further we examined the effect of ebselen in the reduction of disulphide by E. coli Trx and TrxR using both DTNB and insulin as substrates. […] FIGS. 4A and 4B show the effect of ebselen (4A) and ebselen diselenide (4B) on DTNB reduction by E. coli thioredoxin and thioredoxin reductase. Assays in semi-microcuvettes with 0.5 ml solution contained 0.24 mM NADPH, 1 mM DTNB in 50 mM Tris-Cl/1 mM EDTA, pH 7.5 buffer. (A) In the presence of 2 μM (grey filled points), 5 μM (white filled points) and 10 μM (black filled points) of E. coli Trx and 7.6 nM of E. coli TrxR with ebselen at concentrations of zero (squares), 0.5 μM (triangles), 1 μM (rhombus), and 2 μM (rounds), the increase in A412 was measured against a blank. (B) In the presence of 2 μM (grey filled points), 5 μM (white filled points) and 10 μM (black filled points) of E. coli Trx and 10 nM of E. coli TrxR, with ebselen diselenide at concentrations of zero (squares), 1 μM (triangles) and 2 μM (rounds), the increase in A412 was measured against a blank.

The subject of test [1] is Mycobacterium tuberculosis. As to the kind of experiment: Inhibition of Mycobacterium tuberculosis by ebselen, radiometric BACTEC 460 system. The test is classed as cell-based.
For the next test, the system named is E. coli NHHJ. To be noted: strains of Enterobacteriaceae like E. coli NHHJ; cited from earlier work.
The next test concerns wild type DHB4 E. coli. As to the kind of experiment: Bacterial inhibition by ebselen derivates, MIC. As to conditions: Escherichia coli, DHB4E.COLI, 4 h, read-out: MIC for wild type DHB4 E. coli.
In a further test the test system is Gor^- DHB4 E. coli. As to the kind of experiment: Bacterial inhibition by ebselen derivates, MIC. To be noted: Escherichia coli, 4 h, read-out: MIC for Gor^- DHB4 E. coli.

In general, Ki refers to a dissociation constant, usually derived from enzyme kinetics or from competition with a known ligand. A higher Ki goes with a looser hold on the target. For orientation: MIC means the lowest concentration found to suppress growth.

Method for Gor^- DHB4 E. coli: (§1) E. coli DHB4 strains wt, gshA^−, gor^−, oxyR^− were cultured overnight in LB medium. […] OD 600 was detected and DMSO was used as the control. […] The data are the means of two experiments.
Method for wild type DHB4 E. coli: as §1

Regarding `O=c1c2ccccc2[se]n1-c1ccccc1` [EbSe 6, 2-phenyl-1,2-benzisoselenazol-3(2H)-one], the “inhibition of E. coli TrxR (in words)” value at E. coli TrxR is listed as “strongly inhibited”. The compound also gave a Ki on E. coli TrxR (Ki (competitive inhibitor of Trx reduction by E. coli TrxR), from Lineweaver-Burk slopes) of 150 nM. Further, the MIC in test [1] (Mycobacterium tuberculosis) was less than 20 µg/mL; in the test on wild type DHB4 E. coli, 40 µM (≈ 11 µg/mL); with Gor^- DHB4 E. coli, 15 µM (≈ 4.11 µg/mL). The Sensitivity to ebselen entry in test [1] (strain BTB 98-310 (MDR), ebselen 10 μg/ml) was “R”; in test [1] (strain BTB 98-310 (MDR), ebselen 20 μg/ml) it was “S”; in test [1] (strain BTB 98-310 (MDR), ebselen 40 μg/ml), “S”; in test [1] (strain BTB 98-310 (MDR), ebselen 80 μg/ml), “S”; in test [1] (strain H37Rv, ebselen 10 μg/ml), “R”; in test [1] (strain H37Rv, ebselen 20 μg/ml) it was “S”. For the same compound, the Sensitivity to ebselen entry is reported as “S” in test [1] (strain H37Rv, ebselen 40 μg/ml); “S” in test [1] (strain H37Rv, ebselen 80 μg/ml); “R” in test [1] (strain Panel3:24 (MDR), ebselen 10 μg/ml); “S” in test [1] (strain Panel3:24 (MDR), ebselen 20 μg/ml); “S” in test [1] (strain Panel3:24 (MDR), ebselen 40 μg/ml); “S” in test [1] (strain Panel3:24 (MDR), ebselen 80 μg/ml). Moreover, in the test with E. coli NHHJ, the “concentration required to inhibit growth” value is on record as “up to 50 μg per ml”.
